Results from PMC11589570, “Critical assessment of LC3/GABARAP ligands used for degrader development and ligandability of LC3/GABARAP binding pockets” (Nature Communications, 2024).
Values joined by “and” are separate entries in the source; they are usually repeats but may differ in a detail not shown here. Identical values can stand only once. “Also recorded” adds a separate entry of the source. One block for each compound: values may come before it.

Columns and labels:
[1] = system: LC3/GABARAPs (human Atg8 family); test: FP assay with Cy5-labelled p62 LIR tracer, statements on all LC3/GABARAPs; format: binding
LC3A = LC3A (Homo sapiens, UniProt Q9H492); test: Spectral shift assay (Dianthus), cysteine-labelled protein; format: binding; conditions: Repeat 1 and Repeat 2, listed as 8F20 (3)
Description: Affinity determination using spectral shift mode on Dianthus: To determine dissociation constants, the Dianthus instrument (NanoTemper Technologies GmbH, Germany) was used to monitor molecular interactions. […] Protein was labelled with RED-maleimide 2nd Generation (cat# MO-L014; NanoTemper Technologies GmbH). Labeling was carried out following the manufacturer protocol, using a 3:1 ratio dye:protein. […] Protein was purified in 30 mM HEPES, 100 mM NaCl, 0.05% Tween, pH 7.5. […] Measurements were performed in spectral shift mode with an LED excitation power of 100%. Data were analyzed using the DI.Screening Analysis Software (v.2.0.4) (NanoTemper Technologies GmbH, Germany) and quality criteria values including Δ Ratio, Signal-to-Noise-Ratio, Fit Saturation and KD values were determined.

[2] = biological target: T1, NanoLuc-fusion full-length LC3A (Homo sapiens, UniProt Q9H492); test: NanoBRET cellular target engagement assay in HEK293T cells; format: cell-based; conditions: LC3A; 1 µM tracer; compound 4 for tracer 16, compound 3 for tracer 17
T1 construct: a fluorescent donor (in this case full length LC3A and LC3B); expressed in transfected cells; host or cells: HEK293T (ATCC; CRL-11268)
Description: (§1) NanoBRET cellular target engagement assay: Constructs contained the cDNA of full-length LC3A and LC3B cloned in frame with an N-terminal NanoLuc-fusion. Plasmids were transfected into HEK293T (ATCC; CRL-11268) cells using FuGENE HD (Promega, E2312) and proteins were allowed to express for 20 h. 10O5 and 8F20-based tracers were titrated to the protein as depicted in Supplementary Fig. 4d. For competition experiments, 1 µM of the tracers was pipetted into white 384-well plates (Greiner 781 207) using an Echo 550 acoustic dispenser (Labcyte) containing LC3A/LC3B expressing transfected cells at a density of 2.5 × 10^5 cells/mL in Opti-MEM without phenol red (Life Technologies). The system was allowed to equilibrate for 2 h at 37 °C and 5% CO2 prior to BRET measurements. To measure BRET, NanoBRET NanoGlo Substrate + Extracellular NanoLuc Inhibitor (Promega, N2540) was added as per the manufacturer’s protocol, and filtered luminescence was measured on a PHERAstar plate reader (BMG Labtech) equipped with a luminescence filter pair (450 nm BP filter (donor) and 610 nm LP filter (acceptor)). Competitive displacement data were then plotted using GraphPad Prism 9.3 software using a normalized 3-parameter curve fit. A detailed step-by-step protocol for this assay is described in Schwalm..

[3] = biological target: T2, NanoLuc-fusion full-length LC3B (Homo sapiens, UniProt Q9GZQ8); test: as above; format: cell-based; conditions: LC3B; 1 µM tracer; compound 4 for tracer 16, compound 3 for tracer 17
T2 construct: a fluorescent donor (in this case full length LC3A and LC3B); expressed in transfected cells; host or cells: HEK293T (ATCC; CRL-11268)
Description: as §1

RPE1 cells = test: Cell growth assay (IncuCyte confluence over 72 h); format: cell-based; conditions: for RPE1 cell growth: listed as 8F20
Outline: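 Phase confluence (% area covered by cells) imaged every 2 h for 72 h after compound addition; cells in DMEM/10% FBS, seeded 24 h before treatment. Controls were 0.1% DMSO, 250 nM Torin1 and 200 ng/mL Bafilomycin (final). Each point averages three wells.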

[4] = Cell viability measurements; format: cell-based; set-up: Cell viability: scale not given here; conditions: two replicate columns; for Cell viability: listed as 8F20
Text: 1 Source data for Supplementary Fig. 8a-f are provided as a Source Data file.

LC3B = LC3B (Homo sapiens, UniProt Q9GZQ8); test: FP assay with 10O5- and 8F20-based dye-linked tracers 16 and 17; conditions: LC3B; compound 3 for tracer 17, compound 4 for tracer 16

interaction with LC3/GABARAP family members in FP displacement assay [1]: interacted with all LC3/GABARAPs
SMILES: CCCCCCC(Sc1nc(Cl)cc(Nc2nc(-c3ccc(C(=O)O)cc3)cs2)n1)C(=O)O (stereo not shown) [compound 21]

SMILES: Cc1ccc(C(=O)N(CCCN)[C@@H](c2nc3cc(Cl)ccc3c(=O)n2Cc2ccccc2)C(C)C)cc1 [compound 3, (R)-N-(3-aminopropyl)-N-(1-(3-benzyl-7-chloro-4-oxo-3,4-dihydroquinazolin-2-yl)−2-methylpropyl)−4-methylbenzamide]
Initial Fluorescence (LC3A; compound 15.2588 nM titrated against LC3A): 10115.139 and 10590.376
Initial Fluorescence (LC3A; compound 30.5176 nM titrated against LC3A): 10801.294 and 10751.715
Initial Fluorescence (LC3A; compound 61.0352 nM titrated against LC3A): 10969.053 and 11514.474
Initial Fluorescence (LC3A; compound 122.07 nM titrated against LC3A): 10805.714 and 11350.170
Initial Fluorescence (LC3A; compound 244.141 nM titrated against LC3A): 12437.260 and 12829.142
Initial Fluorescence (LC3A; compound 488.281 nM titrated against LC3A): 11460.432 and 11424.556
Initial Fluorescence (LC3A; compound 976.562 nM titrated against LC3A): 11304.154 and 11789.590
Initial Fluorescence (LC3A; compound 1953.12 nM titrated against LC3A): 11136.164 and 11540.347
Initial Fluorescence (LC3A; compound 3906.25 nM titrated against LC3A): 11540.226 and 11678.705
Initial Fluorescence (LC3A; compound 7812.5 nM titrated against LC3A): 12368.631 and 13118.831
Initial Fluorescence (LC3A; compound 15625 nM titrated against LC3A): 13549.037 and 11303.453
Initial Fluorescence (LC3A; compound 31250 nM titrated against LC3A): 12093.613 and 11816.274
Initial Fluorescence (LC3A; compound 62500 nM titrated against LC3A): 12824.797 and 12883.571
Initial Fluorescence (LC3A; compound 125000 nM titrated against LC3A): 12380.010 and 12980.949
Initial Fluorescence (LC3A; compound 250000 nM titrated against LC3A): 12405.646 and 13536.280
NanoBRET signal / tracer displacement [2]: No displacement
NanoBRET signal / tracer displacement [3]: No displacement
RPE1 cell growth (RPE1 cells; 500 nM, 34 h): 24 and 12 and 17
RPE1 cell growth (RPE1 cells; 500 nM, 36 h): 23 and 14 and 18
RPE1 cell growth (RPE1 cells; 500 nM, 38 h): 23 and 14 and 19
RPE1 cell growth (RPE1 cells; 500 nM, 40 h): 11 and 16 and 21
RPE1 cell growth (RPE1 cells; 500 nM, 42 h): 27 and 16 and 23
RPE1 cell growth (RPE1 cells; 500 nM, 44 h): 29 and 17 and 23
RPE1 cell growth (RPE1 cells; 500 nM, 46 h): 31 and 17 and 24
RPE1 cell growth (RPE1 cells; 500 nM, 48 h): 32 and 17 and 25
RPE1 cell growth (RPE1 cells; 500 nM, 54 h): 33 and 17 and 28
RPE1 cell growth (RPE1 cells; 1 uM, 34 h): 15 and 25 and 13
RPE1 cell growth (RPE1 cells; 1 uM, 36 h): 17 and 25 and 14
RPE1 cell growth (RPE1 cells; 1 uM, 38 h): 17 and 24 and 15
RPE1 cell growth (RPE1 cells; 1 uM, 40 h): 18 and 20 and 17
RPE1 cell growth (RPE1 cells; 1 uM, 42 h): 22 and 27 and 16
RPE1 cell growth (RPE1 cells; 1 uM, 44 h): 22 and 28 and 18
RPE1 cell growth (RPE1 cells; 1 uM, 46 h): 22 and 28 and 17
RPE1 cell growth (RPE1 cells; 1 uM, 48 h): 25 and 32 and 18
RPE1 cell growth (RPE1 cells; 1 uM, 50 h): 24 and 32 and 20
RPE1 cell growth (RPE1 cells; 1 uM, 54 h): 29 and 33 and 21
RPE1 cell growth (RPE1 cells; 1 uM, 56 h): 28 and 34 and 21
RPE1 cell growth (RPE1 cells; 1 uM, 58 h): 30
RPE1 cell growth (RPE1 cells; 3 uM, 34 h): 25 and 15 and 17
RPE1 cell growth (RPE1 cells; 3 uM, 36 h): 25 and 16 and 18
RPE1 cell growth (RPE1 cells; 3 uM, 38 h): 26 and 17 and 18
RPE1 cell growth (RPE1 cells; 3 uM, 40 h): 23 and 18 and 19
RPE1 cell growth (RPE1 cells; 3 uM, 42 h): 29 and 18 and 23
RPE1 cell growth (RPE1 cells; 3 uM, 44 h): 28 and 20 and 21
RPE1 cell growth (RPE1 cells; 3 uM, 46 h): 31 and 19 and 22
RPE1 cell growth (RPE1 cells; 3 uM, 48 h): 31 and 19 and 23
RPE1 cell growth (RPE1 cells; 3 uM, 50 h): 31 and 20 and 23
RPE1 cell growth (RPE1 cells; 3 uM, 52 h): 25 and 22 and 24
RPE1 cell growth (RPE1 cells; 3 uM, 54 h): 31 and 21 and 25
RPE1 cell growth (RPE1 cells; 3 uM, 56 h): 34 and 19 and 25
RPE1 cell growth (RPE1 cells; 5 uM, 40 h): 27 and 15 and 24
effect on cell growth (confluence) (RPE1 cells; RPE1, 72 h): significant growth reduction; also recorded: strongly suppressed cellular growth
viability at 20 µM ([4]; log concentration [M] -4.69897): 0.689%
Cell viability ([4]; log concentration [M] -4.69897): 1.283
viability at 7.5 µM ([4]; log concentration [M] -5.12494): 91.3%
Cell viability ([4]; log concentration [M] -5.12494): 92.2351
viability at 2.5 µM ([4]; log concentration [M] -5.60206): 96.5%
Cell viability ([4]; log concentration [M] -5.60206): 100.107
viability at […] ([4]; log concentration [M] -6.00436): 93.4%
Cell viability ([4]; log concentration [M] -6.00436): 93.5465
viability at 0.3 µM ([4]; log concentration [M] -6.52288): 103%
Cell viability ([4]; log concentration [M] -6.52288): 93.076
viability at 0.125 µM ([4]; log concentration [M] -6.90309): 105%
Cell viability ([4]; log concentration [M] -6.90309): 93.9495
viability at 0.05 µM ([4]; log concentration [M] -7.30103): 102%
Cell viability ([4]; log concentration [M] -7.30103): 103.3
viability at 0.01625 µM ([4]; log concentration [M] -7.78915): 96.5%
Cell viability ([4]; log concentration [M] -7.78915): 90.0205
viability at […] ([4]; log concentration [M] -8.06399): 103%
Cell viability ([4]; log concentration [M] -8.06399): 92.6947
viability at 0.005 µM ([4]; log concentration [M] -8.30103): 99.5%
Cell viability ([4]; log concentration [M] -8.30103): 91.472
viability at 0.0021 µM ([4]; log concentration [M] -8.67778): 99.1%
Cell viability ([4]; log concentration [M] -8.67778): 90.5247
displacement of dye-linked tracer by parent compound (LC3B): no displacement
